The text below walks through data of US20180290979A1, “COMPOSITION HAVING COMPOUND ACCELERATING PHOSPHORYLATION OF AMPK AS EFFECTIVE COMPONENT” (Kyoto University, priority 2015, published 2018).

The test system of assay [1] is Jurkat cells. In words: Induction of cell death in cancer cells, WST-8 assay. To be noted: human T-cell leukemia. Type of assay: cell-based. A general note: Formazan colour is commonly taken as a measure of viable cells.
The test system of assay [2] is HeLa cells. The description is as above. Type of assay: cell-based. The settings on record: human cervical cancer.
Assay [3] concerns ACC (acetyl-CoA carboxylase). The assay is described as follows: Enhancement of phosphorylation of ACC, Western blotting in NIH/3T3 cells. In kind it is cell-based, mouse. As to the method: (§1) Compound 1 was added to mouse fibroblast NIH/3T3 cells under serum-free conditions, the cells were harvested over a period of time to prepare a disrupted cell suspension, and phosphorylated AMPKα, total AMPKα, phosphorylated ACC, and total ACC were detected by Western blotting. ACC denotes acetyl-CoA carboxylase.

Assay [4] has as its system NIH/3T3 cells. In words: Inhibition of cell death after storage at 4° C. and rewarming to 37° C. In kind it is cell-based, mouse. The settings on record: cells stored at 4° C. for 24 hours and then rewarmed to 37° C.
Assay [5] deals with liver warm ischemia reperfusion injury. The assay is described as follows: Rat liver warm ischemia reperfusion injury model. Type of assay: in vivo. The settings on record: LEW rats, 0.3 mg/kg before ischemia. How it is done: An experiment was performed with a rat liver warm ischemia reperfusion model, in which LEW rats of eight to nine weeks of age were subjected to laparotomy under general anesthesia by endotracheal intubation, and after 20 minutes of warm ischemia applied by blocking the hepatic portal region, the blocking was released and reperfusion was carried out. With respect to positive subjects, using AICAR (aminoimidazole-4-carboxamide rebonucleoside), which is an AMPK activator, a solvent, Compound 1 (0.3 mg/kg), and AICAR (100 mg/kg) were administered, respectively, before ischemia, and aspartate aminotransferase (AST) and alanine aminotransferase (ALT), which are liver deviation enzymes, in peripheral blood were measured six hours after the reperfusion (N=3).

Assay [6] has as its system LC3-II. The assay is described as follows: Autophagy marker LC3-II in cancer cells, Western blotting. Type of assay: cell-based, human. To be noted: HeLa cells, in the presence of 4 mM of BafA, cultured for 21 hours. As to the method: Bafilomycin A1 (BafA) is an autophagy inhibitor. BafA was added to HeLa cells for one hour and then Compound 1 was added thereto. After this was cultured for 21 hours, the cells were harvested to prepare a disrupted cell suspension, and the amount of LC3-II was confirmed by Western blotting. LC3-II is an autophagy marker.
On the technique in general: A western blot detects proteins with antibodies after separation by electrophoresis.

Assay [7] deals with AMPKα. The assay is described as follows: Enhancement of phosphorylation of AMPK, Western blotting in NIH/3T3 cells. In kind it is cell-based, mouse. As to the method:
as §1

Assay [8] concerns SH-SY5Y cells. In words: Induction of cell death in cancer cells. Type of assay: cell-based. To be noted: human neuroblast.
The test system of assay [9] is NIH/3T3 cells. The assay is described as follows: Inhibition of cell death caused by serum starvation, WST-8 assay. To be noted: serum-free. In kind it is cell-based, mouse. As to the method:
NIH/3T3 cells were cultured under serum-containing or serum-free conditions, and after a predetermined period of time, a WST-8 assay was performed to confirm the cell number (N=6).
FIG. 2 is a graph comparing the viable cell numbers in the serum-starved condition in the presence and absence of Compound 1.

Assay [10] deals with Mouse spinal cord macrophages. In words: Inhibition of cell death in primary culture, WST-8 assay. To be noted: serum-containing or serum-free. Type of assay: cell-based. How it is done:
Mouse spinal cord macrophages were cultured under serum-containing or serum-free conditions, and after a predetermined period of time, a WST-8 assay was performed to confirm the cell number (N=6).

In assay [11] the test system is HeLa cells. In words: Effect of autophagy inhibitor 3-MA on cell death induced by Compound 1, WST-8 assay. In kind it is cell-based, human. As to the method:
3-Methyladenine (3-MA) is a class III PI3K inhibitor and is also an autophagy inhibitor. 3-MA was added to HeLa cells for one hour, and three days later, a WST-8 assay was performed to confirm the number of the cells.
Thus, it was confirmed that cell death induced by Compound 1 in cancer cells was autophagic.

Assay [12] has as its system mouse fibroblast MEF. In words: Inhibition of TNF-α induced apoptosis. In kind it is cell-based.
Setting [13] is: 16 hours after the addition (data not shown).
Setting [14] is: NIH/3T3 cells, serum-free, within 10 minutes after the addition.

On to `O=S(=O)(Nc1cc(C(F)(F)F)ccc1N1CC[C@@H]2CCCC[C@H]2C1)c1ccc(F)cc1` [Compound 1, 4-fluoro-N-(2-((4aS,8aR)-octahydroisoquinolin-2(1H)-yl)-5-(trifluoromethyl)phenyl)benzenesulfonamide], for which the “cell death in cancer cells” value in [1], in [2] and in assay [8] was “able to induce cell death” in each case. For the same compound, the “phosphorylation of ACC” value is “maintained” in assay [3] (setting [13]) and “enhanced” in assay [3] (setting [14]). Further, in assay [4], the “cell death after cold storage and rewarming” value is given as “cell death inhibitory effect was observed”. In assay [5], the hepatic injury result is recorded as “alleviate hepatic injury”. Besides, in assay [5] (20 minutes warm ischemia, six hours after the reperfusion), the “elevation of liver deviation enzymes (AST, ALT) in peripheral blood” value is “inhibited the elevation of liver deviation enzymes”. The “amount of LC3-II” value in [6] is reported as “considerably increased”. Moreover, the “phosphorylation of AMPK” value is “maintained” in assay [7] (setting [13]) and “enhanced” in assay [7] (setting [14]). In addition, in assay [9], the “cell death caused by serum starvation (viable cell number)” value (“cell death caused by serum starvation” for short) was “significantly inhibited cell death”. For the same compound, in assay [10], the “cell death in primary culture (viable cell number)” value was “significantly inhibited cell death”. Also, the “type of cell death induced in cancer cells” value in assay [11] (HeLa cells, with 3-MA, three days) is recorded as “autophagic”. The “TNF-α induced apoptosis (proinflammatory cell death)” value in [12] is reported as “cell death inhibitory effect was observed”.

`O=S(=O)(Nc1cc(C(F)(F)F)ccc1N1CC[C@@H]2CCCC[C@H]2C1)c1ccccc1` [Compound 2, N-(2-((4aS,8aR)-octahydroisoquinolin-2(1H)-yl)-5-(trifluoromethyl)phenyl)benzenesulfonamide]: the “cell death caused by serum starvation” value in [9] is “cell death inhibitory effect equivalent to that of Compound 1”.

Take `Cc1ccc(S(=O)(=O)Nc2cc(C(F)(F)F)ccc2N2CC[C@@H]3CCCC[C@H]3C2)cc1` [Compound 3, N-(2-((4aS,8aR)-octahydroisoquinolin-2(1H)-yl)-5-(trifluoromethyl)phenyl)-4-toluenesulfonamide]: in assay [9], the “cell death caused by serum starvation” value is on record as “cell death inhibitory effect equivalent to that of Compound 1”.

Consider `Cn1cnc(N)c2ncnc1-2` [Compound 3-MA, 3-Methyladenine, reference compound], for which the “survival rate of the cells” value in assay [11] (HeLa cells with cell death induced by Compound 1, depending on the amount of 3-MA added) was “improved”.

Consider `O=S(=O)(Nc1cc(C(F)(F)F)ccc1N1CC[C@@H]2CCCC[C@H]2C1)c1ccc(Br)cc1` [Compound 4, 4-bromo-N-(2-((4aS,8aR)-octahydroisoquinolin-2(1H)-yl)-5-(trifluoromethyl)phenyl)benzenesulfonamide], for which the “cell death caused by serum starvation” value in assay [9] is “cell death inhibitory effect equivalent to that of Compound 1”.

For the compound `O=S(=O)(Nc1cc(C(F)(F)F)ccc1N1CC[C@@H]2CCCC[C@H]2C1)c1ccc2ccccc2c1` [Compound 6, N-(2-((4aS,8aR)-octahydroisoquinolin-2(1H)-yl)-5-(trifluoromethyl)phenyl)-2-naphthalenesulfonamide], in [9], the “cell death caused by serum starvation” value is “cell death inhibitory effect equivalent to that of Compound 1”.
